Experiments:
[1] = tested on: HEI-OC1 mouse auditory cells; test: XTT cell viability assay in HEI-OC1 auditory cells with or without H2O2; format: cell-based
Protocol: QN23 nitrone was tested in cell cultures of HEI-OC1 mouse auditory cells derived from the Immortomouse™ postnatal organ of Corti following protocols published by the group (Cervantes et al., J Clin Med. 2019 Sep. 14; 8 (9): 1464). HEI-OC1 cells were cultured in DMEM medium supplemented with 10% fetal bovine serum (Gibco), without antibiotics.
Cells were treated with different doses of QN23 (10-50-100-150-200 μM) and with or without 1.2 mM H2O2. Cell viability was studied by XTT assay. Absorbance measurements at 450 and 660 nm were taken with the VERSAmax plate reader at 4 h, 6 h and 23 h after addition of XTT reagents. Viability results were calculated following the formula: Specific absorbance=[Abs450 nm (test)−Abs450 nm (blank)]−Abs660 nm (test). The wells without cells in the respective treatments were used as blanks. Data are represented as mean±SEM, considering the untreated control as 100% viability. Results are from 3 independent experiments and 7 wells/condition/experiment for QN23 nitrone without H2O2 treatment (A-C) or with treatment (D-E). Statistical significance was calculated by Student's test: *p<0.05; **p<0.01; ***p<0.001 in comparison vs. untreated control with QN23. […] After the exposure to H2O2, the cell viability was reduced about 50% due to the cell death associated to the oxidative damage caused by H2O2.
The inventors also compared the effect of QN23 with N-acetylcysteine (NAC). To that end, QN23 nitrone was dissolved in absolute EtOH≥99.5% (#107017; Merck) and tested in vitro in a dose range of 10-200 μM. Cells were treated with increasing doses of H2O2 (1-1.4 mM; Merck).
N-acetylcysteine (NAC) (0.5 mM; Sigma) was used as a reference antioxidant treatment. NAC is a prodrug of L-cysteine, itself a precursor of the biological antioxidant glutathione, among other intracellular actions (Ezerina et al., Cell Chem Biol. 2018 Apr. 19; 25 (4): 447-459.e4). Cells were treated with increasing doses of H2O2 (0.8-1.6 mM).
In both cases, survival curves were performed using the CyQUANT™ XTT cell viability assay (#X12223; Invitrogen) after 2 hours of the administration of QN23 or NAC.
Phenyl N-t-butylnitrone≥98% C6H5CH═N(O)C(CH3)3, PBN) (Sigma-Aldrich, catalogue number B7263) was dissolved as indicated by the manufacturer in Dimethyl sulfoxide (DMSO). DMSO was used as a solvent and had no detectable effects at the dose used (up to 0.1%). A solution 50 uM was prepared to determine the protective effect.
Cell culture, treatments with PBN and XTT assays were performed as already reported for QN23 in sections above.

[2] = tested on: C57BL/6JCrl mice; test: Noise-induced hearing loss in mice, auditory brainstem response (ABR) thresholds; format: in vivo; details: 24 h after noise exposure (105 dB, 30 min); QN23 2 mg/kg every 12 h intraperitoneally for 3 days, started 1 h before noise; vs vehicle; click and pure tones 4-32 kHz
Protocol: The experiments were carried out in C57BL/6JCrl mice, male or female, aged 1.5 months at the beginning of the study.
Noise exposure was performed inside a reverberation chamber. The animals were exposed to 105 dB SL for 30 minutes (Sanz L, Murillo-Cuesta S, Cobo P, Cediel-Algovia R, Contreras J, Rivera T, Varela-Nieto I, Avendaño C. Swept-sine noise-induced damage as a hearing loss model for preclinical assays. Front Aging Neurosci. 2015 Feb. 16; 7:7).
Auditory function was assessed by recording auditory brainstem evoked potentials (ABR) at baseline and after noise exposure (1 day, 14 days and 28 days after exposure), according to protocol described in (Murillo-Cuesta S, Contreras J, Zurita E, Cediel R, Cantero M, Varela-Nieto I, Montoliu L. Melanin precursors prevent premature age-related and noise-induced hearing loss in albino mice. Pigment Cell Melanoma Res. 2010 February; 23 (1): 72-83. doi: 10.1111/j.1755-148X.2009.00646.x. Epub 2009 Oct. 19).
The nitrone QN23 was prepared as described in WO2020/074666. The solution for its administration was always performed at the time of use by dissolving it under vigorous stirring in a mixture of ethanol, polyethylene glycol (PEG400, Sigma) and saline (1:200:60, V/V), until a stock solution of concentration 3.6 mg/ml was obtained. […]

## CC(=O)N[C@@H](CS)C(=O)O [NAC, N-acetylcysteine, reference compound]
[1]; 0.5 mM NAC, H2O2 0.8-1.6 mM, 2 h
  Protective effect on cell viability at increasing doses of H2O2: effectively protected from H2O2-induced oxidative damage and cell death at the highest doses tested

## CC(C)(C)[N+]([O-])=Cc1ccccc1 [PBN, Phenyl N-t-butylnitrone, reference compound]
[1]; 50 μM PBN, without or with increasing doses of H2O2, 2 h, XTT read at 4 and 6 h, 1 experiment
  Protective effect on cell viability at increasing doses of H2O2: no protection was observed when H2O2 doses were higher than 0.5 mM

## COc1ccc2nc(Cl)c(/C=[N+](\[O-])C(C)(C)C)cc2c1 [QN23, (Z)—N-tert-butyl-1-(2-chloro-6-methoxyquinolin-3-yl)methanimine oxide]
[2]
  Auditory Brainstem Response thresholds after noise exposure: significantly lower thresholds than those receiving vehicle
[1]; 50 μM QN23, 0.8 mM H2O2, 2 h
  Cell viability at low H2O2 concentration (early stages of cell deterioration): enhancement of cell viability even at concentrations as low as 0.8 mM H2O2
[1]; 50 μM QN23, H2O2 0.8-1.6 mM, 2 h
  Protective effect on cell viability at increasing doses of H2O2: cell viability superior at all H2O2 concentrations tested
[1]; QN23 10-200 μM for 2 h, without H2O2, XTT read at 4, 6 and 23 h
  Toxicity to cells (cell viability without H2O2): not toxic to the cells
[1]; QN23 10-50-100-150-200 μM with 1.2 mM H2O2 for 2 h, vs non-treated control group
  Cell viability after exposure to H2O2: significantly increased cell viability at all the doses tested

From patent US20260027102A1, “QUINOLYLNITRONE DERIVATIVES FOR USE IN THE PREVENTION AND/OR TREATMENT OF HEARING LOSS” (CONSEJO SUPERIOR DE INVESTIGACIONES CIENTÍFICAS (CSIC), priority 2022, published 2026)
